Source: patent US20230210732A1, “REDUCTIVE TEETH WHITENING UTILIZING SALTS OF DITHIONITE” (CAO Group, Inc., priority 2022, published 2023)

Test: whitening of stained extracted teeth, color scored against a classical VITA shade guide
Conditions: for tooth whitening (color vs classical VITA shade guide): teeth left in solution overnight, all teeth
Excerpt: To evaluate these solutions, a collection of extracted teeth was examined and selected for dark color stains ranging from light yellow to brown. These teeth were then categorized and scored for color by comparing to a classical VITA shade guide. Then half of the teeth were then placed in a fresh solution of 15% sodium dithionite in water with unadjusted pH. The second half were placed in the solution adjusted to above pH 10. All teeth became whiter after remaining in solution overnight, especially light yellow to yellow stained teeth.

In the case of `O=S([O-])S(=O)[O-].[Na+].[Na+]` [sodium dithionite], the “tooth whitening of brown stained teeth” value (15% sodium dithionite in water (unadjusted pH or above pH 10), overnight, brown teeth, less effect than light yellow to yellow teeth) was “whitened significantly”, the “tooth whitening (color vs classical VITA shade guide)” value (15% sodium dithionite solution adjusted to above pH 10) was “became whiter” and the “tooth whitening (color vs classical VITA shade guide)” value (fresh solution of 15% sodium dithionite in water, unadjusted pH) was “became whiter”.
